{
  "source": "patent US7417165B2",
  "about": "“Crystalline forms of pregabalin” (Teva Pharmaceutical Industries Ltd., priority 2005, dated 2008)",
  "origin": "cited, not measured here",
  "key": {"seizure": {"system": "seizure", "settings": "background statement, no data"}, "[1]": {"system": "GAD (L-glutamic acid decarboxylase)", "settings": "background statement, no data"}},
  "data": [
    {"smiles": "CC(C)C[C@H](CN)CC(=O)O", "note": "[(S)-Pregabalin, (S)-(+)-3-(aminomethyl)-5-methylhexanoic acid]", "values": [
      {"measurement": "protective effect on seizure", "setting": "seizure", "value": "dose dependent protective effect"},
      {"measurement": "activation of GAD (L-glutamic acid decarboxylase)", "setting": "[1]", "value": "activate"}
    ]}
  ]
}
